Laboratory results published in article PMC10436262, “Structure-Based Design of Inhibitors of the m^6A-RNA Writer Enzyme METTL3” (ACS Bio & Med Chem Au, 2023).

Tests used:
METTL1 = METTL1 (Homo sapiens, UniProt Q9UBP6); test: Thermal shift assay; type: binding
Experimental: (§1) METTL1 mediates the formation of N7-methylguanine in a subset of RNA species, such as tRNAs, mRNAs, and microRNAs, whereas METTL16 is able to N6-methylate a subset of mRNAs and U6 small nuclear RNAs.[23],[24] The co-product of methyl transfer catalysis, S-adenosyl-L-homocysteine (SAH), was used as a positive control in the thermal shift assay. […] Compound 54 at 200 μM was able to shift the melting curve of METTL3/METTL14 by 1.8 °C compared to the DMSO control (Figure S4).
(§2) The protein sample was buffered in 25 mM HEPES (pH 7.4) and 150 mM NaCl and assayed in a 96-well plate at a final concentration of 2 μM in 20 μL volume. The SYPRO Orange dye was added as a fluorescence probe at a dilution of 1:1000. The compound 54 concentrations tested were 10, 50, 100, and 200 μM, while the SAH concentrations tested were 100, 500, 1000, and 2000 μM. The temperature was raised with a step of 0.5 °C starting from 20 to 80 °C, and fluorescence readings were taken at each interval. The reported values (ΔTm) are calculated as the difference between the transition midpoints of an individual sample and the average of the reference wells (containing the protein and the DMSO only) in the same plate. The DMSO concentration was kept at 1% (v/v).

METTL16 = target: T1, METTL16 (Homo sapiens, UniProt Q86W50); test: Thermal shift assay; type: binding
T1 sequence (Q86W50 1-562): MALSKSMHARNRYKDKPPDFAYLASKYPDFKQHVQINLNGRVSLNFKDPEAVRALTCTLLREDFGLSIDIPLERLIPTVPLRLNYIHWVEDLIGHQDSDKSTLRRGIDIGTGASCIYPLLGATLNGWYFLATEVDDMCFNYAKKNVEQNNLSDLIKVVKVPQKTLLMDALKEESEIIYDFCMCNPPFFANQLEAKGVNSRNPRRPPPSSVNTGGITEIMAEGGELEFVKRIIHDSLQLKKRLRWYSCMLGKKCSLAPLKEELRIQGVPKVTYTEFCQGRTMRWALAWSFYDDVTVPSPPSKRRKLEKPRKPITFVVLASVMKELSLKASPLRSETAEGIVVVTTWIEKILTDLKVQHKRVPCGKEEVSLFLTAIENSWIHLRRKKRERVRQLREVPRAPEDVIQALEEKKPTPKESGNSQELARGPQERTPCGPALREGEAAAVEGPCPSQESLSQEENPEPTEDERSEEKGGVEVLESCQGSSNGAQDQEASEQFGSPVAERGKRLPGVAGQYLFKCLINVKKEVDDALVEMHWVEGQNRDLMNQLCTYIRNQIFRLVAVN
Experimental: as §1, §2

METTL3/METTL14 [1] = target: T2, METTL3/METTL14 (Homo sapiens, UniProt Q86U44); test: Thermal shift assay; type: binding; conditions: vs DMSO control
T2 construct: made in house; host or cells: Sf9 insect cells (baculovirus)
T2 sequence (Q86U44 whole entry): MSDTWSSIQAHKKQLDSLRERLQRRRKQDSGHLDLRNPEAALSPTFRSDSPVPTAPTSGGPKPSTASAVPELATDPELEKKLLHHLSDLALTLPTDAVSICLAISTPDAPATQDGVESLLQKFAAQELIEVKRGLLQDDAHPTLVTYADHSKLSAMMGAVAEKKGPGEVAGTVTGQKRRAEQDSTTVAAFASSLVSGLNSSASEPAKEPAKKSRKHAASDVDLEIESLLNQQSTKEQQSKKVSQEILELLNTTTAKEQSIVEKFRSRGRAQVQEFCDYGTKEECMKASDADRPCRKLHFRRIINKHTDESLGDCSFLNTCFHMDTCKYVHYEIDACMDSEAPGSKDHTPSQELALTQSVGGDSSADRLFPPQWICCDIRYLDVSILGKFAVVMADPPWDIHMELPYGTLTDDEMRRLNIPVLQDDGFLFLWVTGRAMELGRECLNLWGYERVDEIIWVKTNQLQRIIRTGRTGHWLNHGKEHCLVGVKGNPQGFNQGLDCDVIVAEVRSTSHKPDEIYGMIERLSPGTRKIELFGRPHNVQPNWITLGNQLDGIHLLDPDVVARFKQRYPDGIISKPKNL
T2 sequence (Q9HCE5 whole entry partner): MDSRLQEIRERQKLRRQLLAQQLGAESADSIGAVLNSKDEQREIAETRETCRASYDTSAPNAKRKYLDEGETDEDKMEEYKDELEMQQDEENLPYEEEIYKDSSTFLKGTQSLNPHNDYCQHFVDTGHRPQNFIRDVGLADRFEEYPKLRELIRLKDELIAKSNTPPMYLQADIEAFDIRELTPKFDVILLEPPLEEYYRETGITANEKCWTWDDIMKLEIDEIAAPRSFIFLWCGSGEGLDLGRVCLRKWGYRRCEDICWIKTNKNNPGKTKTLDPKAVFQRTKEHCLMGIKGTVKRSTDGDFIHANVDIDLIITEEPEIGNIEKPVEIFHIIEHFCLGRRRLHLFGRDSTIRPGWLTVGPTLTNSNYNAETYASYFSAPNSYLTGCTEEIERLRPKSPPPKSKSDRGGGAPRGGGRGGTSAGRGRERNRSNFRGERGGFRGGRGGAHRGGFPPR
Experimental: as §1, §2

METTL3/METTL14 [2] = target: T2, METTL3/METTL14; test: METTL3 enzymatic inhibition assay by homogeneous time-resolved fluorescence (HTRF); type: biochemical
Experimental: Compound potencies were evaluated by using a previously reported METTL3 inhibition assay. […] Tested compounds that inhibit METTL3 decrease the m^6A level and thus reduce the HTRF signal. The biochemical assay was performed, as described previously.[19] The IC50 values derived from fitting a dose–response curve to the data using nonlinear regression. The IC50 values are given as an average of at least two independent measurements for each compound in the text.

MOLM-13 cells = test: Antiproliferative activity / cytotoxicity (GI50), CellTiter-Glo; type: cell-based
Experimental: We then decided to evaluate the cellular potency of inhibitor 54. The antiproliferative activity on MOLM-13, which is an acute myeloid leukemia cell line, was measured using a previously published protocol with a 3-day incubation time.[10]
MOLM-13 cells were cultured in RPMI 1640 medium containing 10% Gibco FBS and 1% penicillin/streptomycin (complete medium) in 5% CO2 at 37 °C in a humidified incubator, with maintained cell densities at 0.6–2 × 10^6 cells/mL.
Cells were seeded in white clear-bottom 96-well plates at a density of 2 × 10^4 cells/well in 50 μL of the complete RPMI medium and treated with 50 μL increasing concentrations of compound 54 dissolved in DMSO (final concentration of compounds 1.25–160 μM) or DMSO only (0.5% (v/v)) as a negative control and incubated for 72 h at 37 °C with 5% CO2. Cell viability was determined using a CellTiter-Glo luminescent cell viability assay (Promega G7570) based on the detection of ATP according to the manufacturer’s instructions. […] The luminescence was recorded using a Tecan Infinite […] M1000 microplate reader from the top. The background luminescence value was obtained from wells containing the CellTiter-Glo reagent and medium without cells. Cell viability curves were plotted in GraphPad Prism 9 and fitted with nonlinear regression, from which GI50 values were determined.

[3] = tested on: m^6A/A level in MOLM-13 cells; parameters: method as in PMID 34237194; conditions: read-out: IC50 for m^6A/A reduction; cited from earlier work
[4] = SAH at 2000 μM, vs DMSO control

METTL1, sequence (Q9UBP6 whole entry, species assumed): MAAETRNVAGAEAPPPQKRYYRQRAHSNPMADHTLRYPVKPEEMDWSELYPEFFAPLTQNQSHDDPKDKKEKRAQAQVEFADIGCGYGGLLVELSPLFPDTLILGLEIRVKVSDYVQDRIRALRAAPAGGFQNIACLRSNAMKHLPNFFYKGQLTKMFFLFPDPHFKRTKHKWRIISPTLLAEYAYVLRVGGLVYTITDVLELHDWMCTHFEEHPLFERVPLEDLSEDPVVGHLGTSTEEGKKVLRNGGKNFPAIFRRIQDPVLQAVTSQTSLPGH

Nc1ncnc2c1ncn2[C@@H]1O[C@H](CSCC[C@H](N)C(=O)O)[C@@H](O)[C@H]1O [SAH, S-adenosyl-L-homocysteine, reference compound]
ΔTm (METTL1; [4]): 8.75 °C | ΔTm (METTL16; [4]): 2.5 °C | ΔTm (METTL3/METTL14 [1]; SAH at 2000 μM): 4.05 °C

CC(C)C1N(Cc2ccc3c(NCC4(O)CCCN(c5cc(NCc6ccccc6)ncn5)C4)cccc3c2)CC12CCC2 (centres unmarked) [compound 54, 1-(6-(benzylamino)pyrimidin-4-yl)-3-(((6-((1-isopropyl-2-azaspiro[3.3]heptan-2-yl)methyl)naphthalen-1-yl)amino)methyl)piperidin-3-ol]
IC50 (METTL3/METTL14 [2]; HTRF assay, racemic mixture, read-out: IC50): 0.054 µM | fold improvement in affinity (IC50) vs compound 46 (METTL3/METTL14 [2]; matched pair 46:54): 6.7 fold | GI50 (MOLM-13 cells; Homo sapiens, MOLM-13, 3-day (72 h) incubation, average of two biological replicates): 6 µM | factor by which cellular GI50 is higher than biochemical IC50 (MOLM-13 cells; MOLM-13 GI50 vs HTRF IC50): about 100 | ΔTm (shift of melting curve) (METTL1; compound up to 200 μM): No shift | ΔTm (shift of melting curve) (METTL16; compound up to 200 μM): No shift | ΔTm at 200 µM (METTL3/METTL14 [1]; compound at 200 μM, read-out: ΔTm (shift of melting curve)): 1.8 °C

CC1(C)CCN(Cc2ccc(C(=O)NC[C@]3(O)CCCN(c4cc(NCc5ccccc5)ncn4)C3)c(O)c2)CC1 [UZH1a]
IC50 [3]: 4.6 µM
